Results from US6534515B2, “20,21-dinor-eburnamenines” (Aventis Pharma S.A., priority 1989, dated 2003).

Assays:
[1] = system: adrenergic alpha2 receptors; assay: Affinity for the adrenergic alpha 2 receptors (3H rauwolscine displacement, rat cortex membranes); type: binding; details: rat brain cortex membranes, 3H rauwolscine 0.15 nM, 45 minutes at 25° C.; CD/CX = concentrations of phentolamine/product inhibiting 50% of specific fixation
Experimental: 1) Affinity for the Adrenergic Alpha 2 Receptors:
10 cortices removed from the brains of male rats weighing an average of 150 g were homogenized in 90 ml of 0.32 M sucrose. After centrifuging 1000 g of the homogenized mixture, for 10 minutes at 0° C.+4° C., the deposit was suspended in 240 ml of 50 mM Tris HCl pH 7.7 buffer, and centrifuged at 30,000 g for 15 minutes at 0°+4° C. The new deposit was suspended in 480 ml of 50 mM NaKPO4 pH 7.4 buffer. Then, 2 ml of suspension were incubated for 45 minutes at 25° C. in the presence of ^3H rauwolscine at a concentration of 0.15 nM:
I) alone or II) with increasing concentrations of the product under test or, III) to determine the non-specific fixation with non-radioactive phentolamine at a concentration of 10^−5M.
The incubated suspensionis were filtered on Whatman GF/C and the filters were washed three times with 5 ml of NaKPO4 pH 7.4 buffer at 0° C. The ratioactivity of the filters was measured by liquid scintillation. The affinity of the product tested for the adrenergic alpha2 receptors was determined relative to phentolamine as reference product.
CD=concentration of phentolamine inhibiting 50% of the specific fixation of ^3H rauwolscine,
CX=concentration of the product under test inhibiting 50% of the specific fixation of ^3H rauwolscine.
The relative affinity was calculated by the relation: […]

[2] = system: male mice of CD1 CHARLES RIVER type; assay: Hypobaric anoxia survival time in mice; type: in vivo; details: intra-peritoneally 10 mg/kg, 60 minutes before the test, pressure drop of 630 mm Hg, relative to control animals
Experimental: Male mice of CD1 CHARLES RIVER type weighing 20 to 25 grams having gone without food for 6 hours were placed in a 2-liter chamber in which a pressure drop of 630 mm Hg was carried out according to the following kinetics:
The survival time was measured from the time TO and over a maximum time of 3 minutes and it was about 70 seconds for the control animals. The rectal temperature was measured immediately before the determination of the survival time. The products were administered intra-peritoneally at a dose of 10 mg/kg and in a volume of 10 ml/kg 60 minutes before the test and the control animals received the vehicle. The results were determined as a percentage of increase in the survival time relative to the control animals.

Compound | ARL (relative affinity, from CD and CX, relative to phentolamine as reference product) [1] | % increase in survival time [2]
CC1=Cn2c3c(c4ccccc42)CCN2CCCC1C32 (stereo not drawn) [Example 7, (3-α)-15-methyl-20,21-dinoreburnameinine] | 980 | –
Ethyl [16α, (±)]-20,21-dinoreburnamenine-15-acetate [Example 12] | 942 | –
[16α, (±)-20,21-dinoreburnamenin-15-methanol [Example 13] | 346 | 11%
[16α, (±)]-14,15-dihydro-15-methylene-20,21-dinorburnamenine [Example 11] | 343 | –
[16α, (±)]-15-(1-propynyl)-20,21-dinoreburnamenine [Example 2] | 367 | –
[16α, (±)]-15-methyl-20,21-dinoreburnamenine [Example 5] | 456 | 34%
[16α, (±)]-N,N-dimethyl-20,21dinoreburnamenin-15-methanamine [Example 14] | – | 12%
